Laboratory results taken from patent publication US6472418B1, “Non-peptide NK1 receptors antagonists” (Warner-Lambert Company, priority 1998, dated 2002).

Biological target: T1, Human NK1 Receptor (Homo sapiens, UniProt P25103)
T1 construct: endogenous in cells; host or cells: Human lymphoma IM9 cells (whole cells)
Assay: In Vitro Human NK1 Receptor Binding Assay ([125I]Bolton-Hunter substance P displacement, IM9 cells)
Details: Human lymphoma IM9 cells, [125I]Bolton-Hunter substance P; Table 3, array-synthesis products; read-out: IC50 (nM) hNK1
Description: They have been evaluated in an NK1-receptor binding assay which is described below.
Human lymphoma IM9 cells were grown in RPMI 1640 culture medium supplemented with 10% fetal calf serum and 2 mM glutamine and maintained under an atmosphere of 5% CO2. Cells were passaged every 3-4 days by reseeding to a concentration of 4-8×10^6/40 ml per 175 cm^2 flask. Cells were harvested for experiments by centrifugation at 1000 g for 3 min. Pelleted cells were washed once by resuspension into assay buffer (50 mM Tris HCl pH 7.4, 3 mM MnCl2, 0.02% BSA, […] bacitracin, […] chymostatin, 2 mM phosphoramidon, […] leupeptin) and repeating the centrifugation step before resuspending at a concentration of 2.5×10^6 cells/mL assay buffer. Cells ([…]) were incubated with [^125I]Bolton-Hunter substance P (0.05-0.1 nM) in the presence and absence of varying concentrations of test compounds for 50 min at 21° C. Non-specific binding (10% of the total binding observed under these conditions) was defined by […] [Sar^9, Met(02)^11] substance P. Reactions were terminated by rapid filtration under vacuum onto GF\C filters presoaked in 0.2% PEI for 1-2 h, using a Brandel cell harvester. Filters were washed with 6×1 ml ice-cold Tris HCl (50 mM, pH 7.4) and radioactivity bound determined using a gamma couter. Results were analyzed using iterative curve fitting procedures in RS1 or Graphpad Inplot.

T1 sequence (P25103 whole entry): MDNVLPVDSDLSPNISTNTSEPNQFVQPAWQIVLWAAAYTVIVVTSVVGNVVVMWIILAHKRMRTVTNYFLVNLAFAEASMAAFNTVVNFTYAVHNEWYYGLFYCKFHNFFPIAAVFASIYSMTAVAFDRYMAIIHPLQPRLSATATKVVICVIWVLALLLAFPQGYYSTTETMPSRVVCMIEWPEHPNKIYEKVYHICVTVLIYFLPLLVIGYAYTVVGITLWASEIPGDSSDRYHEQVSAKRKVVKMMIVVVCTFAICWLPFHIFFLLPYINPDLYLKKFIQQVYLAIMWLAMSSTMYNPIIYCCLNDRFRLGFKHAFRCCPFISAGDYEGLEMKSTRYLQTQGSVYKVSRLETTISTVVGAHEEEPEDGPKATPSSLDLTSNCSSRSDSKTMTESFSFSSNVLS

**Q.** For O=C(NCCN1CCOCC1)C(Cc1c[nH]c2ccccc12)NCc1cc2ccccc2o1 (stereo not drawn) [Example 213, 2-[(Benzofuran-2-ylmethyl)-amino]-3-(1H-indol-3-yl)-N-(2-morpholin-4-yl-ethyl)-propionamide], which IC50 is on record?
**A.** 1260 nM

**Q.** Which IC50 does the source give for O=C(NCCSCc1ccccc1)C(Cc1c[nH]c2ccccc12)NCc1cc2ccccc2o1 (stereo not drawn) [Example 296, 2-[(Benzofuran-2-ylmethyl)-amino]-N-(2-benzylsulfanyl-ethyl)-3-(1H-indol-3-yl)-propionamide] here?
**A.** 1340 nM

**Q.** With O=C(NCCCc1ccccc1)C(Cc1c[nH]c2ccccc12)NCc1cc2ccccc2o1 (stereo not drawn) [Example 278, 2-[(Benzofuran-2-ylmethyl)-amino]-3-(1H-indol-3-yl)-N-(3-phenyl-propyl)-propionamide] as the compound, how does the IC50 read?
**A.** 2380 nM

**Q.** With O=C(NCc1cccc([N+](=O)[O-])c1)C(Cc1c[nH]c2ccccc12)NCc1cc2ccccc2o1 (stereo not drawn) [Example 260, 2-[(Benzofuran-2-ylmethyl)-amino]-3-(1H-indol-3-yl)-N-(3-nitro-benzyl)-propionamide] as the compound, how does the IC50 read?
**A.** 14 nM

**Q.** With CC(NC(=O)C(Cc1c[nH]c2ccccc12)NCc1cc2ccccc2o1)c1ccc(Br)cc1 (stereo not drawn) [Example 290, 2-[(Benzofuran-2-ylmethyl)-amino]-N-[1-(4-bromo-phenyl)-ethyl]-3-(1H-indol-3-yl)-propionamide] as the compound, how does the IC50 read?
**A.** 8 nM

**Q.** With O=C(NC1CCCCC1O)C(Cc1c[nH]c2ccccc12)NCc1cc2ccccc2o1 (stereo not drawn) [Example 270, 2-[(Benzofuran-2-ylmethyl)-amino]-N-(2-hydroxy-cyclohexyl)-3-(1H-indol-3-yl)-propionamide] as the compound, how does the IC50 read?
**A.** > 10000 nM

**Q.** For O=C(NCCc1ccco1)C(Cc1c[nH]c2ccccc12)NCc1cc2ccccc2o1 (stereo not drawn) [Example 251, 2-[(Benzofuran-2-ylmethyl)-amino]-N-(2-furan-2-yl-ethyl)-3-(1H-indol-3-yl)-propionamide], which IC50 is on record?
**A.** 129 nM

Same assay, conditions: Table 4; [125I]Bolton-Hunter substance P displacement, human IM9 cells; read-out: IC50 (nM) hNK1

**Q.** CNS(=O)(=O)c1cc(CNC(C)(Cc2c[nH]c3ccccc23)C(=O)NC(C)c2ccccc2)ccc1Cl (stereo not drawn) [compound 326, 2-(4-Chloro-3-methylsulfamoyl-benzylamino)-3-(1H-indo1-3-yl)-2-methyl-N-(1-phenyl-ethyl)-propionamide] was tested. Which IC50 did it give?
**A.** 4830 nM

**Q.** With CC(NC(=O)C(C)(Cc1c[nH]c2ccccc12)NCc1ccc(-c2ccc([N+](=O)[O-])cc2)o1)c1ccccc1 (stereo not drawn) [compound 353, 3-(1H-Indol-3-yl)-2-methyl-2-{[5-(4-nitro-phenyl)-furan-2-ylmethyl]-amino}-N-(1-phenyl-ethyl)-propionamide] as the compound, how does the IC50 read?
**A.** 13 nM

**Q.** CC(NC(=O)C(C)(Cc1c[nH]c2ccccc12)NCc1cnc2ccccc2c1)c1ccccc1 (stereo not drawn) [compound 315, 3-(1H-Indol-3-yl)-2-methylN-(1-phenyl-ethyl)-2-[(quinolin-3-ylmethyl)-amino]-propionamide] was tested. Which IC50 did it give?
**A.** 1070 nM

**Q.** Which IC50 does the source give for CC(NC(=O)C(C)(Cc1c[nH]c2ccccc12)NCc1ccc(-c2ccccc2)cc1)c1ccccc1 (stereo not drawn) [compound 348, 2-[(Biphenyl-4-ylmethyl)-amino]-3-(1H-indol-3-yl)-2-methyl-N-(1-phenyl-ethyl)-propionamide] here?
**A.** 5560 nM

**Q.** Which IC50 does the source give for CC(NC(=O)C(C)(Cc1c[nH]c2ccccc12)NCc1cccc(OCc2ccccc2)c1)c1ccccc1 (stereo not drawn) [compound 344, 2-(3-Benzyloxy-benzylamino)-3-(1H-indol-3-yl)-2-methyl-N-(1-phenyl-ethyl)-propionamide] here?
**A.** 185 nM

**Q.** Which IC50 does the source give for “2-(2,3-Diphenyl-allylamino)-3-(1H-indol-3-yl)-2-methyl-N-(1-phenyl-ethyl)-propionamide [compound 338]” here?
**A.** > 10000 nM

Same assay, conditions: Table 5; [125I]Bolton-Hunter substance P displacement, human IM9 cells; read-out: IC50 (nM) hNK1

**Q.** How did the IC50 turn out when “2-(2,3-Diphenyl-allylamino)-3-(1H-indol-3-yl)-2-methyl-N-(1-phenyl-ethyl)-propionamide [compound 338]” was run?
**A.** > 10000 nM

**Q.** How did the IC50 turn out when CC(NC(=O)C(Cc1c[nH]c2ccccc12)NCc1cccc(OCc2ccccc2)c1)c1ccccc1 (stereo not drawn) [compound 382] was run?
**A.** > 10000 nM

Same assay, conditions: human NK1 receptor, IM9 cells, [125I]Bolton-Hunter substance P; read-out: IC50 (nM) hNK1

**Q.** CC(Cc1c[nH]c2ccccc12)(NCc1cc2ccccc2o1)C(=O)NCC(C)(C)c1ccccc1 (stereo not drawn) [compound 133, 2-[(Benzofuran-2-ylmethyl)-amino]-3-(1H-indol-3-yl)-2-methyl-N-(2-methyl-2-phenyl-propyl)-propionamide] was tested. Which IC50 did it give?
**A.** 4480 nM

**Q.** CC1(CNC(=O)C(C)(Cc2c[nH]c3ccccc23)NCc2cc3ccccc3o2)CCCO1 (stereo not drawn) [compound 136, 2-[(Benzofuran-2-ylmethyl)-amino]-3-(1H-indol-3-yl)-2-methyl-N-(2-methyl-tetrahydro-furan-2-ylmethyl)-propionamide] was tested. Which IC50 did it give?
**A.** > 10000 nM

**Q.** How did the IC50 turn out when CC(Cc1c[nH]c2ccccc12)(NCc1cc2ccccc2o1)C(=O)NCc1ccc2c(c1)OCO2 (stereo not drawn) [compound 174, N-Benzo[1,3]dioxol-5-ylmethyl-2-[(benzofuran-2-ylmethyl)-amino]-3-(1H-indol-3-yl)-2-methyl-propionamide] was run?
**A.** 94 nM

**Q.** For CN1Cc2ccccc2CC1CNC(=O)C(C)(Cc1c[nH]c2ccccc12)NCc1cc2ccccc2o1 (stereo not drawn) [compound 106, 2-[(Benzofuran-2-ylmethyl)-amino]-3-(1H-indol-3-yl)-2-methyl-N-(2-methyl-1,2,3,4-tetrahydro-isoquinolin-3-ylmethyl)-propionamide], which IC50 is on record?
**A.** 4630 nM

**Q.** How did the IC50 turn out when Cc1[nH]cnc1CCNC(=O)C(C)(Cc1c[nH]c2ccccc12)NCc1cc2ccccc2o1 (stereo not drawn) [compound 101, 2-[(Benzofuran-2-ylmethyl)-amino]-3-(1H-indol-3-yl)-2-methyl-N-[2-(5-methyl-1H-imidazol-4-yl)-ethyl]-propionamide] was run?
**A.** > 10000 nM

**Q.** For COc1cc(C(O)CNC(=O)C(C)(Cc2c[nH]c3ccccc23)NCc2cc3ccccc3o2)ccc1O (stereo not drawn) [compound 153, 2-[(Benzofuran-2-ylmethyl)-amino]-N-[2-hydroxy-2-(4-hydroxy-3-methoxy-phenyl)-ethyl]-3-(1H-indol-3-yl)-2-methyl-propionamide], which IC50 is on record?
**A.** 3550 nM

**Q.** With CC(CNC(=O)C(C)(Cc1c[nH]c2ccccc12)NCc1cc2ccccc2o1)c1ccccc1 (stereo not drawn) [compound 150, 2-[(Benzofuran-2-ylmethyl)-amino]-3-(1H-indol-3-yl)-2-methyl-N-(2-phenyl-propyl)-propionamide] as the compound, how does the IC50 read?
**A.** 262 nM

**Q.** How did the IC50 turn out when CC(NC(=O)C(C)(Cc1c[nH]c2ccccc12)NCc1cc2ccccc2o1)c1ccsc1 (stereo not drawn) [compound 41, 2-[(Benzofuran-2-ylmethyl)-amino]-3-(1H-indol-3-yl)-2-methyl-N-(1-thiophen-3-yl-ethyl)-propionamide] was run?
**A.** 19 nM

**Q.** For CC(Cc1c[nH]c2ccccc12)(NCc1cc2ccccc2o1)C(=O)NCCN1CCOC1=O (stereo not drawn) [compound 96, 2-[(Benzofuran-2-ylmethyl)-amino]-3-(1H-indol-3-yl)-2-methyl-N-[2-(2-oxo-oxazolidin-3-yl)-ethyl]-propionamide], which IC50 is on record?
**A.** > 10000 nM

**Q.** Which IC50 does the source give for CC(Cc1c[nH]c2ccccc12)(NCc1cc2ccccc2o1)C(=O)NCc1cccc([N+](=O)[O-])c1 (stereo not drawn) [compound 112, 2-[(Benzofuran-2-ylmethyl)-amino]-3-(1H-indol-3-yl)-2-methyl-N-(3-nitro-benzyl)-propionamide] here?
**A.** 12 nM

**Q.** How did the IC50 turn out when COC(=O)C(Cc1c[nH]cn1)NC(=O)C(C)(Cc1c[nH]c2ccccc12)NCc1cc2ccccc2o1 (stereo not drawn) [compound 176, 2-[2-[(Benzofuran-2-ylmethyl)-amino]-3-(1H-indol-3-yl)-2-methyl-propionylamino]-3-(1H-imidazol-4-yl)-propionic acid methyl ester] was run?
**A.** 1760 nM

**Q.** How did the IC50 turn out when CC(NC(=O)C(C)(Cc1c[nH]c2ccccc12)NCc1cc2ccccc2o1)c1ccccc1 (stereo not drawn) [compound 42, 2-[(Benzofuran-2-ylmethyl)-amino]-3-(1H-indol-3-yl)-2-methyl-N-(1-phenyl-ethyl)-propionamide] was run?
**A.** 261 nM

**Q.** How did the IC50 turn out when CC(Cc1c[nH]c2ccccc12)(NCc1cc2ccccc2o1)C(=O)NCCN1CCNC1=S (stereo not drawn) [compound 132, 2-[(Benzofuran-2-ylmethyl)-amino]-3-(1H-indol-3-yl)-2-methyl-N-[2-(2-thioxo-imidazolidin-1-yl)-ethyl]-propionamide] was run?
**A.** 6030 nM

**Q.** For CC(Cc1c[nH]c2ccccc12)(NCc1cc2ccccc2o1)C(=O)NC1CC1c1ccccc1 (stereo not drawn) [compound 107, 2-[(Benzofuran-2-ylmethyl)-amino]-3-(1H-indol-3-yl)-2-methyl-N-(2-phenyl-cyclopropyl)-propionamide], which IC50 is on record?
**A.** 4150 nM

**Q.** How did the IC50 turn out when CC(Cc1c[nH]c2ccccc12)(NCc1cc2ccccc2o1)C(=O)NCC(c1ccccc1)c1ccccc1 (stereo not drawn) [compound 98, 2-[(Benzofuran-2-ylmethyl)-amino]-N-(2,2-diphenyl-ethyl)-3-(1H-indol-3-yl)-2-methyl-propionamide] was run?
**A.** > 10000 nM

**Q.** How did the IC50 turn out when CC(NC(=O)C(C)(Cc1c[nH]c2ccccc12)NCc1cc2ccccc2o1)c1ccc([N+](=O)[O-])cc1 (stereo not drawn) [compound 34, 2-[(Benzofuran-2-ylmethyl)-amino]-3-(1H-indol-3-yl)-2-methyl-N-[1-(4-nitro-phenyl)-ethyl]-propionamide] was run?
**A.** 14 nM

**Q.** For “2-[(Benzofuran-2-ylmethyl)-amino]-N-(5-hydroxy-4-oxo-4H-pyran-2-ylmethyl)-3-(1H-indol-3-yl)-2-methyl-propionamide [compound 164]”, which IC50 is on record?
**A.** > 10000 nM

**Q.** CN(C)CCNC(=O)C(C)(Cc1c[nH]c2ccccc12)NCc1cc2ccccc2o1 (stereo not drawn) [compound 83, 2-[(Benzofuran-2-ylmethyl)-amino]-N-(2-dimethylamino-ethyl)-3-(1H-indol-3-yl)-2-methyl-propionamide] was tested. Which IC50 did it give?
**A.** 3520 nM
